Data on one compound can be found in article PMC8434109, “Synthesis and Biological Activity of a Cytostatic Inhibitor of MLLr Leukemia Targeting the DOT1L Protein” (Molecules, 2021).

Holding throughout (format): cell-based, human
The test system of one assay is MV4-11 cells (MLL-AF4). Put plainly: Cell proliferation and viability, trypan blue counting. As to conditions: Homo sapiens, 360 h; MV4-11 (AF4), 15-day treatment; read-out: EC50 of the proliferation inhibition.
In assay [1] the test system is MV4-11 cells. Kind of assay: Flow cytometry apoptosis analysis (Annexin V-APC/7-AAD). The method, then:
(§1) A decrease in the S phase of the cell cycle was also observed from 24% (day 8) to 20% (day 10), 13% (day 12).
(§2) In a 12-well plate, 2 mL exponentially growing MV4-11 cells were plated with a density of 2 × 10^5 cells/mL. […] Culture media and drugs were replaced every 2–3 days and cells were split back to a density of 2 × 10^5 cells/mL at the same time. Cells were harvested on days 8, 10, 12 and split to allow the analysis of cell cycle and Annexin V staining simultaneously. The apoptosis ratio was detected by an Annexin V-APC/7-AAD double staining assay (SONY 3804610) and cells were prepared according to the manufacturer’s recommendations. Cells for the cell cycle analysis were collected by centrifugation at 500× g for 5 min at 4 °C. The pellets were washed once with cold PBS and then fixed with 70% ethanol on ice for 30 min. Afterwards, the cells were washed once with cold PBS and stained with propidium iodide (Invitrogen P3566) for 30 min at 37 °C. Samples were measured using an Attune NxT acoustic focusing cytometer (Life Technologies), data were analyzed by FlowJo.
For orientation: Flow cytometry measures light scatter and fluorescence of single cells or particles in a stream.

Assay [2] has as its system MV4-11 cells. Kind of assay: Flow cytometry cell cycle analysis (propidium iodide). The settings on record: for percentage of cells in the G0/G1 phase / percentage of cells in the S phase: MV4-11, 3.2 µM. The method, then: as §1, §2

On to `CC(C)[C@H](CCCNC(=O)Nc1ccc(C(C)(C)C)cc1)N[C@H]1C[C@@H](n2cnc3c(N)ncnc32)[C@H](O)[C@@H]1O` [Dia2, 1-((S)-4-(((1S,2R,3S,4R)-4-(6-amino-9H-purin-9-yl)-2,3-dihydroxycyclopentyl)amino)-5-methylhexyl)-3-(4-(tert-butyl)phenyl)urea], for which, in the assay with MV4-11 cells (MLL-AF4), the EC50 was 93 ± 4 nM. Moreover, in the assay with MV4-11 cells [1] (MV4-11), the effect on apoptosis result is listed as “very little apoptosis”. Moreover, the “apoptotic (Annexin V positive) cells” value in the assay on MV4-11 cells [1] (MV4-11, 1 µM, day 8) was found to be 23%; in the assay with MV4-11 cells [1] (MV4-11, 1 µM, day 10) it was 20%; in the assay on MV4-11 cells [1] (MV4-11, 3.2 µM, day 8) it was 35%; in the assay on MV4-11 cells [1] (MV4-11, 3.2 µM, day 10), 38%. Also, the “effect on the cell cycle” value in the assay on MV4-11 cells [2] (MV4-11, 1 µM) is “does not affect the cell cycle”. The “percentage of cells in the G0/G1 phase” value in the assay with MV4-11 cells [2] (day 8) is listed as 53%; in the assay on MV4-11 cells [2] (day 10) it was 41%; with MV4-11 cells [2] (day 12) it was 24%. In addition, the “percentage of cells in the S phase” value is reported as 24% in the assay with MV4-11 cells [2] (day 8), 20% in the assay on MV4-11 cells [2] (day 10) and 13% with MV4-11 cells [2] (day 12).
